We go through twelve compounds from patent US4761415A, “Dopamine-β-hydroxylase inhibitors” (SmithKline Beckman Corporation, priority 1986, dated 1988).

Data set [1] is described as follows: inhibition of cytochrome P450-dependent mixed function oxidase catalyzed deethylation of ethoxycoumarin. The format is in vitro ADME. As to conditions: read-out: P-450 IC50. As for the experimental part:
The compounds listed in Table I also were evaluated for their ability to inhibit cytochrome P450-dependent mixed function oxidase catalyzed deethylation of ethoxycoumarin by the procedure of […] and Poland, J. Pharmacol. Exp. Ther., 205, 596-605 (1978).

Data set [2] addresses T1, dopamine-β-hydroxylase (DBH) (Bos taurus, UniProt P15101).
T1 sequence (P15101 1-610): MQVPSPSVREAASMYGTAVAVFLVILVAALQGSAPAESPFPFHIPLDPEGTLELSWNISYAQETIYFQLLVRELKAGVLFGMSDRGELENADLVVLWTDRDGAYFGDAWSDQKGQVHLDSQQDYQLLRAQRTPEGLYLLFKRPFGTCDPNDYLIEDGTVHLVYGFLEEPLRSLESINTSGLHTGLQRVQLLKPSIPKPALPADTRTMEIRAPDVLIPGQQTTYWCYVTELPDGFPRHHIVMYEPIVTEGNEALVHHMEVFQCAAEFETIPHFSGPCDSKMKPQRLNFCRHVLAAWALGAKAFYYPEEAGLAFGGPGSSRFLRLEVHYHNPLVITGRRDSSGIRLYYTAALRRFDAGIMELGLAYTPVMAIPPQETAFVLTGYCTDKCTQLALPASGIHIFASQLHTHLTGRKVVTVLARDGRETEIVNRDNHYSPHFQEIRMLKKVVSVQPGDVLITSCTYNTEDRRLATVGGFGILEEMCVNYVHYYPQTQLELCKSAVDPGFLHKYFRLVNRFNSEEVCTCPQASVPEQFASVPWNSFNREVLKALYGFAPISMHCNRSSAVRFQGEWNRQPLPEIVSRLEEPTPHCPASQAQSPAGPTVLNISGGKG
The experiment in a line: biochemical. As to conditions: molar concentration at which DBH activity was halved. As for the experimental part:
J. J. Pisano, et al., Biochim. Biophys. Acta, 43, 566-568 (1960). Octopamine was assayed following sodium periodate oxidation to p-hydroxybenzaldehyde by measuring spectrophotometric absorbance at 330 nm.

In the next data set the test system is DBH. As to conditions: cited from earlier work.
The conditions of data set [3]: Teresawa et al., Japan. Cir. J. 35, 339 (1971); cited from earlier work.
The conditions of data set [4]: Ehrreich et al., 1976; cited from earlier work.
Data set [5] relates to spontaneously hypertensive rats. The experiment in a line: mean arterial blood pressure in spontaneously hypertensive rats. The format is in vivo, rat. As to conditions: 50 mg/kg intraperitoneally; for time to significant blood pressure reduction following treatment / blood pressure reduction (in words): compared to vehicle-treated controls; for blood pressure reduction (in words): within 30 minutes; for maximal blood pressure reduction: monitored for 260 minutes, indwelling cannulae in tail arteries. As for the experimental part:
Further, spontaneously hypertensive rats were treated with a suspension or solution of 3-mercapto-4-benzyl-5-[(4-methyl-piperazinyl)methyl]-1,2,4-triazole or 3-mercapto-4-(3-fluorobenzyl)-5[(4-methyl-1-piperazinyl)methyl]-1,2,4-triazole at a dose of 50 mg/kg intraperitoneally, and mean arterial blood pressure was monitored for 260 minutes using indwelling cannulae in the tail arteries. […] The maximal blood pressure reductions were approximately 25 and 40 mmHg, respectively, for each of the administered compounds.

Where a name gives a salt, the structure may show the parent alone.

What is called IC50 is the concentration that gives 50% inhibition.

Regarding `CN1CCN(Cc2nnc(S)n2Cc2ccccc2)CC1` [3-mercapto-4-benzyl-5-[(4-methyl-1-piperazinyl)methyl]-1,2,4-triazole hydrochloride], the IC50 in data set [1] was 700 µM; in data set [2], 90 µM. For `NNCc1ccccc1` [benzylhydrazine], the “DBH inhibition (in words, literature)” value in the data set on DBH is listed as “apparently act as competitive inhibitors”. As to `CCCCc1ccc(C(=O)O)nc1` [Fusaric acid], the hepatotoxicity entry in data set [3] is given as “hepatotoxic”. Regarding `CCCCc1ccc(C(N)=O)nc1` [Bupicomide, 5-(n-butyl)picolinamine], the “DBH inhibition (in words, literature)” value with DBH is listed as “DBH inhibitor”. Also, in data set [4], the antihypertensive activity result is “has antihypertensive activity”. Consider `CN1CCN(Cc2nnc(S)n2Cc2cccc(F)c2)CC1` [Example 2, 3-Mercapto-4-(3-fluorobenzyl)-5-[(4-methyl-1-piperazinyl)methyl]-1,2,4-triazole], for which, in data set [5], the “time to significant blood pressure reduction following treatment” value was at most 30 min, the “blood pressure reduction (in words)” value is “significant blood pressure reductions” and the “maximal blood pressure reduction” value is on record as about 40 mmHg. For the same compound, the IC50 in data set [1] stood at 375 µM. Besides, the IC50 in data set [2] was determined as 60 µM. Consider `CN1CCN(Cc2nnc(S)n2Cc2ccccc2)CC1` [Example 1, 3-Mercapto-4-benzyl-5-[(4-methyl-1-piperazinyl)methyl]-1,2,4-triazole], for which, in data set [5], the “time to significant blood pressure reduction following treatment” value was at most 30 min, the “blood pressure reduction (in words)” value is on record as “significant blood pressure reductions” and the “maximal blood pressure reduction” value was “approximately 25 mmHg”. Regarding `CN1CCN(Cc2nnc(S)n2Cc2cc(F)cc(F)c2)CC1` [Example 3, 3-Mercapto-4-(3,5-difluorobenzyl)-5-[(4-methyl-1-piperazinyl)methyl]-1,2,4-triazole], the IC50 in data set [1] was found to be 350 µM; in data set [2], 50 µM. Regarding `Fc1cc(F)cc(Cn2ccnc2S)c1` [1-(3,5-difluorobenzyl)-2-mercapto imidazole, reference compound], the half-maximal inhibitory concentration (IC50) in data set [1] was 12 µM; in data set [2], 1.2 µM. For `CN(C)C(=S)SCc1ccc(C(=O)O)nc1` [5-(dimethyldithiocarbamoylmethyl)picolinic acid], in the data set on DBH, the “DBH inhibition (in words, literature)” value is “DBH inhibitors”.

Take `O=C(O)c1ccc(CCC(Br)CBr)cn1` (stereo not shown) [5-(3,4-dibromobutyl)picolinic acid]: the “DBH inhibition (in words, literature)” value in the data set with DBH is given as “DBH inhibitors”. As for `O=C(O)c1ccc(CCCCCl)cn1` [5-(4-chlorobutyl) picolinic acid], the “DBH inhibition (in words, literature)” value in the data set with DBH is “inhibit DBH”. In the case of `NOCc1ccccc1` [Benzyloxyamine, benzyloxyamine], the “DBH inhibition (in words, literature)” value with DBH is reported as “apparently act as competitive inhibitors”.
